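Exposure lasted 48 hours, with cells grown in 96-well plates and compounds tested at five concentrations. GI50 is the concentration that inhibits growth by half.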 Calls of active or inactive are those of the source. No stated cut-off is given here; in the data, active = GI50 up to about 1.1 µM and inactive = higher.
Experiments:
Assay in all cases: inhibition of tumour cell growth, NCI panel, 48 h
SR = tested on: SR
NCI-H460 = tested on: NCI-H460
NCI-H226 = tested on: NCI-H226
TK-10 = tested on: TK-10
DU-145 = tested on: DU-145
U-251 = tested on: U-251
MCF7 = tested on: MCF7
CCRF-CEM = tested on: CCRF-CEM
SK-MEL-5 = tested on: SK-MEL-5
SF-268 = tested on: SF-268
NCI-H522 = tested on: NCI-H522
NCI/ADR-RES = tested on: NCI/ADR-RES
HCC 2998 = tested on: HCC 2998
UO-31 = tested on: UO-31
A498 = tested on: A498
OVCAR-3 = tested on: OVCAR-3
UACC-257 = tested on: UACC-257
T47D = tested on: T47D
HT-29 = tested on: HT-29
Hs-578T = tested on: Hs-578T
MOLT-4 = tested on: MOLT-4
K562 = tested on: K562
ACHN = tested on: ACHN
RPMI-8226 = tested on: RPMI-8226
MDA-N = tested on: MDA-N
786-0 = tested on: 786-0
SF-539 = tested on: SF-539
OVCAR-8 = tested on: OVCAR-8
OVCAR-4 = tested on: OVCAR-4
HCT-116 = tested on: HCT-116
Malme-3M = tested on: Malme-3M
SK-MEL-2 = tested on: SK-MEL-2
UACC-62 = tested on: UACC-62
SNB-75 = tested on: SNB-75
BT-549 = tested on: BT-549
RXF 393 = tested on: RXF 393
HL-60 = tested on: HL-60
M14 = tested on: M14
COLO 205 = tested on: COLO 205
OVCAR-5 = tested on: OVCAR-5
SK-OV-3 = tested on: SK-OV-3
MDA-MB-435 = tested on: MDA-MB-435
A549 = tested on: A549
HOP-62 = tested on: HOP-62
SN12C = tested on: SN12C
IGROV-1 = tested on: IGROV-1
PC-3 = tested on: PC-3
SF-295 = tested on: SF-295
NCI-H23 = tested on: NCI-H23
EKVX = tested on: EKVX
SK-MEL-28 = tested on: SK-MEL-28
KM12 = tested on: KM12
MDA-MB-231 = tested on: MDA-MB-231
CAKI-1 = tested on: CAKI-1
HOP-92 = tested on: HOP-92
HCT-15 = tested on: HCT-15
SW-620 = tested on: SW-620
SNB-19 = tested on: SNB-19
LOX IMVI = tested on: LOX IMVI

CCCCCCC(C)c1ccc2c(c1)C(=O)c1nc3ccncc3c(=O)n1-2 (centres undefined)
GI50 (SR): 225 nM (active) | GI50 (NCI-H460): 2070 nM (inactive) | GI50 (NCI-H226): 4160 nM (inactive) | GI50 (TK-10): 4860 nM (inactive) | GI50 (DU-145): 14600 nM (inactive) | GI50 (U-251): 4260 nM (inactive) | GI50 (MCF7): 5060 nM (inactive) | GI50 (CCRF-CEM): 836 nM (active) | GI50 (SK-MEL-5): 1420 nM (inactive) | GI50 (SF-268): 36200 nM (inactive) | GI50 (NCI-H522): 1290 nM (inactive) | GI50 (NCI/ADR-RES): 5680 nM (inactive) | GI50 (HCC 2998): 3940 nM (inactive) | GI50 (UO-31): 2170 nM (inactive) | GI50 (A498): 4320 nM (inactive) | GI50 (OVCAR-3): 1450 nM (inactive) | GI50 (UACC-257): 2840 nM (inactive) | GI50 (T47D): 3630 nM (inactive) | GI50 (HT-29): 2100 nM (inactive) | GI50 (Hs-578T): 9620 nM (inactive) | GI50 (MOLT-4): 661 nM (active) | GI50 (K562): 419 nM (active) | GI50 (ACHN): 3330 nM (inactive) | GI50 (RPMI-8226): 1150 nM (inactive) | GI50 (MDA-N): 237 nM (active) | GI50 (786-0): 2290 nM (inactive) | GI50 (SF-539): 4440 nM (inactive) | GI50 (OVCAR-8): 6870 nM (inactive) | GI50 (OVCAR-4): 1660 nM (inactive) | GI50 (HCT-116): 2500 nM (inactive) | GI50 (Malme-3M): 235 nM (active) | GI50 (SK-MEL-2): 3610 nM (inactive) | GI50 (UACC-62): 2290 nM (inactive) | GI50 (SNB-75): 8590 nM (inactive) | GI50 (BT-549): 4210 nM (inactive) | GI50 (RXF 393): 4060 nM (inactive) | GI50 (HL-60): 260 nM (active) | GI50 (M14): 2940 nM (inactive) | GI50 (COLO 205): 2870 nM (inactive) | GI50 (OVCAR-5): 5430 nM (inactive) | GI50 (SK-OV-3): 5900 nM (inactive) | GI50 (MDA-MB-435): 352 nM (active) | GI50 (A549): 5650 nM (inactive) | GI50 (HOP-62): 5130 nM (inactive) | GI50 (SN12C): 4330 nM (inactive) | GI50 (IGROV-1): 2510 nM (inactive) | GI50 (PC-3): 3540 nM (inactive) | GI50 (SF-295): 6380 nM (inactive) | GI50 (NCI-H23): 2140 nM (inactive) | GI50 (EKVX): 4250 nM (inactive) | GI50 (SK-MEL-28): 14500 nM (inactive) | GI50 (KM12): 1790 nM (inactive) | GI50 (MDA-MB-231): 2540 nM (inactive) | GI50 (CAKI-1): 2540 nM (inactive) | GI50 (HOP-92): 78300 nM (inactive) | GI50 (HCT-15): 1300 nM | GI50 (SW-620): 2610 nM (inactive) | GI50 (SNB-19): 4810 nM (inactive) | GI50 (LOX IMVI): 1060 nM (active)

From ChEMBL document CHEMBL1201862, “PubChem BioAssay data set” (2004)
